Assay results: patent US8785439B2, “2,5,7-substituted oxazolopyrimidine derivatives” (Sanofi, priority 2010, dated 2014)

Biological target: T1, human Edg-1 receptor (Homo sapiens, UniProt P21453)
T1 construct: FLAG (N); expressed in transfected cells; membrane preparation
Experiment: GTP-γ-S assay using human Edg-1 receptors (SPA, CHO Flp-In cell membrane preparation)
Assay type: biochemical
Settings: test compound at 10 μM; high control 10 μM S1P regarded as 100% activation; background-corrected; triplicate; read-out: % Activation (Edg-1 receptor activation in percent of the activation by 10 μM S1P)
Description: Determination of the Pharmacological Activity A) GTP-γ-S Assay Using Human Edg-1 Receptors
In order to determine the Edg-1 receptor activation by the compounds of the invention, a GTP-γ-S (guanosine 5′-[γ-thio]triphosphate) assay for G-protein coupled receptor binding based on the scintillation proximity assay principle was used, employing a cell membrane preparation from a CHO Flp-In cell line which constitutively overexpresses the human Edg-1 receptor.
The Flp-In™ expression system (Invitrogen, cat. no. K6010-01) allows the generation of stable mammalian cell lines into which the gene of interest has been integrated through homologous recombination at a specific genomic location called Flp Recombination Target (FRT) site by means of a Flp recombinase encoded by the pOG44 expression plasmid. The integration of the pcDNA5/FRT expression construct into the Flp-In host cell line genome results in the transcription of the gene of interest. The stably transfected cells become hygromycin-resistant.
One day prior to transfection, 200 000 Flp-In-CHO cells were seeded in Ham F-12 medium (Invitrogen, cat. no. 31765) supplemented with 10% fetal calf serum (FCS; Perbio Science, cat. no. SH30068.03) in a 6-well plate and incubated at 37° C./5% CO2 overnight. Using the FuGENE® 6 transfection reagent (Roche, cat. no. 11988387001), cells were cotransfected with the Flp recombinase expression plasmid pOG44 and a modified plasmid additionally containing the edg-1 gene (accession no. NM_001400) termed as pcDNA5-FRT-TO_nFLAG_DEST-EDG-1 with a 9:1 ratio. To obtain the modified pcDNA5-FRT-TO_nFLAG_DEST plasmid, the Invitrogen plasmid pcDNA5/FRT/TO (Invitrogen, cat. no. V6520-20) was adapted to the Gateway® (Invitrogen) cloning system by inserting a Gateway cassette containing attR recombination sites flanking a ccdB gene and a chloramphenicol-resistance gene (Gateway conversion system, Invitrogen, cat. no. 11828-029). In addition a FLAG tag epitope was added before the 5′ att recombination site to allow recombinant expression of N-terminally FLAG-tagged proteins.
For the transfection of one well, 1.08 μg of pOG44 and 0.12 μg of pcDNA5-FRT-TO_nFLAG_DEST-EDG-1 were mixed with 100 μl of serum-free Ham F-12 medium containing 6 μl of FuGENE® 6 transfection reagent. After 20 min of incubation, the transfection reagent/DNA complex was distributed dropwise on the cells. The cells were incubated for 24 h at 37° C. Then the cells from 3 wells each were transferred to a T75 flask (Greiner Cellstar®, cat. no. 658175) containing Ham F-12 medium supplemented with 10% of FCS but without antibiotic and were incubated another 24 h. 48 h after transfection, the medium was replaced by selection medium (Ham F-12 supplemented with 10% of FCS and 300 μg/ml of hygromycin B (Invitrogen, cat. no. 10687-010)). The medium was exchanged every 2 to 3 days until a resistant population of cells had grown. […] After 2 weeks of selection, the cells were transferred into T175 flasks (Greiner Cellstar®, cat. no. 660175) and cultivated for batch production. Cells were harvested from the culture flasks by short treatment (2 to 5 min) with Accutase (PAA, cat. no. L11-007), resuspended in selection medium (see above) and centrifuged at 200×g for 5 min. Cells were resuspended in a mixture of 90% of FCS and 10% of dimethylsulfoxide and stored frozen in liquid nitrogen.
A membrane preparation was obtained by standard methods from the afore-described CHO Flp-In cell line constitutively overexpressing the human Edg-1 receptor. Briefly, the cryopreserved cells were taken in culture and grown until confluency in T175 cell culture flasks (Becton Dickinson, cat. no. 35 5001). […]

T1 sequence (P21453 whole entry): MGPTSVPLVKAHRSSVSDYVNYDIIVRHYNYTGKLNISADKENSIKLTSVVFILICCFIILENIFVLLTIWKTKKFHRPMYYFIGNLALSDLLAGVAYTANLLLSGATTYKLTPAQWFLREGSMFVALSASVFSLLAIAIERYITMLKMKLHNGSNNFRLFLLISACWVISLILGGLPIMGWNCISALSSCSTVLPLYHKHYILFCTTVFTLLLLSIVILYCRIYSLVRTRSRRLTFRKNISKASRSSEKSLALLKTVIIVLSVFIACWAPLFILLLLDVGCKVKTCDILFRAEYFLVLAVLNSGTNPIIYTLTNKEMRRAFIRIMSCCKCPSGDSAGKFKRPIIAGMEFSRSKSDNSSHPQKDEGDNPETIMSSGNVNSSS

SMILES | activation at 10 µM [%]
CCCOc1nc(Oc2ccc(C)cc2Cl)nc2oc(-c3cccc(C)c3)nc12 [Example 90, 5-(2-chloro-4-methyl-phenoxy)-7-propoxy-2-(3-methyl-phenyl)-oxazolo[5,4-d]pyrimidine] | 67
CCCOc1nc(Oc2ccc(C)c(F)c2)nc2oc(-c3cccc(C)c3)nc12 [Example 54, 5-(3-fluoro-4-methyl-phenoxy)-7-propoxy-2-(3-methyl-phenyl)-oxazolo[5,4-d]pyrimidine] | 105
Clc1ccc(-c2nc3c(OCC4CC4)nc(Oc4ccccc4)nc3o2)cc1Cl [Example 110, 7-cyclopropylmethoxy-2-(3,4-dichloro-phenyl)-5-phenoxy-oxazolo[5,4-d]pyrimidine] | 80
CCCOc1nc(Oc2ccc(C)nn2)nc2oc(-c3cccc(C)c3)nc12 [Example 19, 5-(6-methyl-pyridazin-3-yloxy)-7-propoxy-2-(3-methyl-phenyl)-oxazolo[5,4-d]pyrimidine] | 62
CCCOc1nc(O[C@H]2CCCC[C@@H]2F)nc2oc(-c3cccc(F)c3)nc12 [Example 48, 5-((1S,2S)-2-fluoro-cyclohexyloxy)-2-(3-fluoro-phenyl)-7-propoxy-oxazolo[5,4-d]pyrimidine] | 105
Cc1cccc(-c2nc3c(OCC4CC4)nc(Oc4ccccc4F)nc3o2)c1 [Example 29, 7-cyclopropylmethoxy-5-(2-fluoro-phenoxy)-2-(3-methyl-phenyl)-oxazolo[5,4-d]pyrimidine] | 109
CCCOc1nc(Sc2nccs2)nc2oc(-c3cccc(C)c3)nc12 [Example 4] | 93
CCCOc1nc(Oc2cc(F)ccc2Cl)nc2oc(-c3cccc(C)c3)nc12 [Example 101, 5-(2-chloro-5-fluoro-phenoxy)-7-propoxy-2-(3-methyl-phenyl)-oxazolo[5,4-d]pyrimidine] | 104
CCCOc1nc(Oc2ccccc2C(C)C)nc2oc(-c3cccc(C)c3)nc12 [Example 124, 5-(2-isopropyl-phenoxy)-7-propoxy-2-(3-methyl-phenyl)-oxazolo[5,4-d]pyrimidine] | 112
CCCOc1nc(Oc2ccc(F)cc2F)nc2oc(-c3cccc(C)c3)nc12 [Example 95, 5-(2,4-difluoro-phenoxy)-7-propoxy-2-(3-methyl-phenyl)-oxazolo[5,4-d]pyrimidine] | 107
Cc1cccc(-c2nc3c(OCC4CC4)nc(SC4CCS(=O)(=O)C4)nc3o2)c1 (stereo not drawn) [Example 28, 7-cyclopropylmethoxy-5-(1,1-dioxo-tetrahydro-1lambda6-thiophen-3-ylsulfanyl)-2-(3-methyl-phenyl)-oxazolo[5,4-d]pyrimidine] | 69
CCCOc1nc(Oc2ccc(Cl)c(Cl)c2)nc2oc(-c3cccc(C)c3)nc12 [Example 1, 5-(3,4-Dichloro-phenoxy)-7-propoxy-2-(3-methyl-phenyl)-oxazolo[5,4-d]pyrimidine] | 62

Other lines, results leading:

activation at 10 µM [%] | SMILES
62 | CCCOc1nc(Sc2ccc(C)cn2)nc2oc(-c3cc(F)ccc3Cl)nc12 [Example 155, 2-(2-chloro-5-fluoro-phenyl)-5-(5-methyl-pyridin-2-ylsulfanyl)-7-propoxy-oxazolo[5,4-d]pyrimidine]
81 | CCOc1nc(Oc2cccc(S(N)(=O)=O)c2)nc2oc(-c3cc(F)ccc3Cl)nc12 [Example 21, 3-[2-(2-chloro-5-fluoro-phenyl)-7-ethoxy-oxazolo[5,4-d]pyrimidin-5-yloxy]-benzenesulfonamide]
99 | CC1(C)OCC(COc2nc(OCC3CC3)c3nc(-c4cc(F)ccc4Cl)oc3n2)O1 (stereo not drawn) [Example 34, 2-(2-chloro-5-fluoro-phenyl)-7-cyclopropylmethoxy-5-(2,2-dimethyl-[1,3]dioxolan-4-ylmethoxy)-oxazolo[5,4-d]pyrimidine]
105 | CCCOc1nc(Oc2ccccc2C#N)nc2oc(-c3cccc(C)c3)nc12 [Example 128, 2-(7-propoxy-2-(3-methyl-phenyl)-oxazolo[5,4-d]pyrimidin-5-yloxy)-benzonitrile]
113 | CCCOc1nc(Oc2cccc(Cl)c2)nc2oc(-c3cccc(C)c3)nc12 [Example 121, 5-(3-chloro-phenoxy)-7-propoxy-2-(3-methyl-phenyl)-oxazolo[5,4-d]pyrimidine]
107 | CCCOc1nc(Oc2ccc(SC(F)(F)F)cc2)nc2oc(-c3cccc(F)c3)nc12 [Example 82, 2-(3-fluoro-phenyl)-7-propoxy-5-(4-trifluoromethylsulfanyl-phenoxy)-oxazolo[5,4-d]pyrimidine]
80 | CCCOc1nc(Oc2ccc(C)cc2)nc2oc(-c3cccc(C)c3)nc12 [Example 73, 7-propoxy-2-(3-methyl-phenyl)-5-p-tolyloxy-oxazolo[5,4-d]pyrimidine]
40 | CCCOc1nc(Sc2ccccc2)nc2oc(-c3ccc(Cl)c(Cl)c3)nc12 [Example 156, 2-(3,4-dichloro-phenyl)-5-phenylsulfanyl-7-propoxy-oxazolo[5,4-d]pyrimidine]
55 | Cc1ccc(F)cc1Oc1nc(OCC2CC2)c2nc(-c3ccc(Cl)c(Cl)c3)oc2n1 [Example 159, 7-cyclopropylmethoxy-2-(3,4-dichloro-phenyl)-5-(5-fluoro-2-methyl-phenoxy)-oxazolo[5,4-d]pyrimidine]
117 | Fc1ccc(Cl)c(-c2nc3c(OCC4CC4)nc(Oc4ccccc4F)nc3o2)c1 [Example 104, 2-(2-chloro-5-fluoro-phenyl)-7-cyclopropylmethoxy-5-(2-fluoro-phenoxy)-oxazolo[5,4-d]pyrimidine]
108 | CCCOc1nc(Sc2cc(F)ccc2C)nc2oc(-c3cc(F)ccc3Cl)nc12 [Example 153, 2-(2-chloro-5-fluoro-phenyl)-5-(5-fluoro-2-methyl-phenylsulfanyl)-7-propoxy-oxazolo[5,4-d]pyrimidine]
124 | CCCOc1nc(Oc2ccccc2)nc2oc(-c3cc(C)ccc3F)nc12 [Example 33, 2-(2-fluoro-5-methyl-phenyl)-5-phenoxy-7-propoxy-oxazolo[5,4-d]pyrimidine]
96 | CCCOc1nc(Oc2ccc(C)c(Cl)c2)nc2oc(-c3cccc(C)c3)nc12 [Example 89, 5-(3-chloro-4-methyl-phenoxy)-7-propoxy-2-(3-methyl-phenyl)-oxazolo[5,4-d]pyrimidine]
129 | CCCOc1nc(Oc2c(C)cccc2C)nc2oc(-c3cccc(C)c3)nc12 [Example 132, 5-(2,6-dimethyl-phenoxy)-7-propoxy-2-(3-methyl-phenyl)-oxazolo[5,4-d]pyrimidine]
69 | Fc1ccccc1Oc1nc(OCC2CC2)c2nc(-c3ccc(Cl)c(Cl)c3)oc2n1 [Example 158, 7-cyclopropylmethoxy-2-(3,4-dichloro-phenyl)-5-(2-fluoro-phenoxy)-oxazolo[5,4-d]pyrimidine]
82 | CCCOc1nc(Oc2ccc(C(F)(F)F)cc2Cl)nc2oc(-c3cccc(C)c3)nc12 [Example 145, 5-(2-chloro-4-trifluoromethyl-phenoxy)-7-propoxy-2-(3-methyl-phenyl)-oxazolo[5,4-d]pyrimidine]
72 | CCCOc1nc(Oc2ccc(OC)cc2F)nc2oc(-c3cccc(C)c3)nc12 [Example 75, 5-(2-fluoro-4-methoxy-phenoxy)-7-propoxy-2-(3-methyl-phenyl)-oxazolo[5,4-d]pyrimidine]
111 | CCCOc1nc(Oc2cccnc2)nc2oc(-c3cccc(C)c3)nc12 [Example 77, 7-propoxy-5-(pyridin-3-yloxy)-2-(3-methyl-phenyl)-oxazolo[5,4-d]pyrimidine]
